According to US9376425B2, “Heterocyclic compounds as MDM2 inhibitors for the treatment of cancer” (AMGEN INC., priority 2011, dated 2016):

Biological target: T1, human MDM2 (GST-hMDM2 1-188), interaction with biotinylated-p53 (1-83) (Homo sapiens, UniProt Q00987)
T1 construct: Amino acid residues 1-188 of human MDM2 were expressed; made in house; host or cells: Escherichia coli
Experiment: improved HTRF assay (HTRF2 assay), inhibition of HDM2-p53 interaction
Type: binding
Settings: 0.2 nM GST-hMDM2, 0.5 nM biotinylated-p53, 100 mM KF
Method in brief: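 GST-hMDM2 preincubated 20 min at RT with serially diluted compound, then biotinylated p53 (1-83, E. coli) added for 60 min. Detection with SA-XLent, anti-GST cryptate and KF, equilibrated >4 h; final DMSO 2%. TR-FRET read; % inhibition calculated relative to nutlin-3.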

T1 sequence (Q00987 1-188): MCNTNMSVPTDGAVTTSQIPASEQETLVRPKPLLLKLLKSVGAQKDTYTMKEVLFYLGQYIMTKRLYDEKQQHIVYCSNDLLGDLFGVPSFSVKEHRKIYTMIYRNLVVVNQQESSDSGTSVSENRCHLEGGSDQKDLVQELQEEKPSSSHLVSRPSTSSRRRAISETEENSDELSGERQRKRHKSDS

Row | Structure (SMILES) | IC50 [nM]
1 | O=C1[C@@H](Cc2cnn[nH]2)O[C@H](c2cccc(Cl)c2)[C@@H](c2ccc(Cl)cc2)N1[C@H](CN(c1ccccc1F)S(=O)(=O)C1CC1)C1CC1 (single isomer, unassigned) [Example 394, N-((S)-2-((2R,5R,6R)-2-((1H-1,2,3-Triazol-5-yl)methyl)-6-(3-chlorophenyl)-5-(4-chlorophenyl)-3-oxomorpholino)-2-cyclopropylethyl)-N-(2-fluorophenyl)cyclopropanesulfonamide or N-((S)-2-((2S,5R,6R)-2-((1H-1,2,3-triazol-5-yl)methyl)-6-(3-chlorophenyl)-5-(4-chlorophenyl)-3-oxomorpholino)-2-cyclopropylethyl)-N-(2-fluorophenyl)cyclopropanesulfonamide] | 1
2 | O=C1[C@@H](Cc2cnn[nH]2)O[C@H](c2cccc(Cl)c2)[C@@H](c2ccc(Cl)cc2)N1[C@H](CN(c1ccccc1F)S(=O)(=O)C1CC1)C1CC1 (single isomer, unassigned) [Example 395, N-((S)-2-((2R,5R,6R)-2-((1H-1,2,3-Triazol-5-yl)methyl)-6-(3-chlorophenyl)-5-(4-chlorophenyl)-3-oxomorpholino)-2-cyclopropylethyl)-N-(2-fluorophenyl)cyclopropanesulfonamide or N-((S)-2-((2S,5R,6R)-2-((1H-1,2,3-triazol-5-yl)methyl)-6-(3-chlorophenyl)-5-(4-chlorophenyl)-3-oxomorpholino)-2-cyclopropylethyl)-N-(2-fluorophenyl)cyclopropanesulfonamide] | 1
3 | O=C1[C@@H](Cc2ncn[nH]2)O[C@H](c2cccc(Cl)c2)[C@@H](c2ccc(Cl)cc2)N1[C@H](CN(c1ccccc1F)S(=O)(=O)C1CC1)C1CC1 (single isomer, unassigned) [Example 396, N-((S)-2-((2R,5R,6R)-2-((1H-1,2,4-Triazol-5-yl)methyl)-6-(3-chlorophenyl)-5-(4-chlorophenyl)-3-oxomorpholino)-2-cyclopropylethyl)-N-(2-fluorophenyl)cyclopropanesulfonamide or N-((S)-2-((2S,5R,6R)-2-((1H-1,2,4-triazol-5-yl)methyl)-6-(3-chlorophenyl)-5-(4-chlorophenyl)-3-oxomorpholino)-2-cyclopropylethyl)-N-(2-fluorophenyl)cyclopropanesulfonamide] | 2
4 | O=C1[C@@H](Cc2ncn[nH]2)O[C@H](c2cccc(Cl)c2)[C@@H](c2ccc(Cl)cc2)N1[C@H](CN(c1ccccc1F)S(=O)(=O)C1CC1)C1CC1 (single isomer, unassigned) [Example 397, N-((S)-2-((2R,5R,6R)-2-((1H-1,2,4-Triazol-5-yl)methyl)-6-(3-chlorophenyl)-5-(4-chlorophenyl)-3-oxomorpholino)-2-cyclopropylethyl)-N-(2-fluorophenyl)cyclopropanesulfonamide or N-((S)-2-((2S,5R,6R)-2-((1H-1,2,4-triazol-5-yl)methyl)-6-(3-chlorophenyl)-5-(4-chlorophenyl)-3-oxomorpholino)-2-cyclopropylethyl)-N-(2-fluorophenyl)cyclopropanesulfonamide] | 1
5 | O=C1[C@@H](Cc2nnn[nH]2)O[C@H](c2cccc(Cl)c2)[C@@H](c2ccc(Cl)cc2)N1[C@H](CN(c1ccccc1F)S(=O)(=O)C1CC1)C1CC1 (single isomer, unassigned) [Example 398, N-((S)-2-((2R,5R,6R)-2-((1H-Tetrazol-5-yl)methyl)-6-(3-chlorophenyl)-5-(4-chlorophenyl)-3-oxomorpholino)-2-cyclopropylethyl)-N-(2-fluorophenyl)cyclopropanesulfonamide or N-((S)-2-((2S,5R,6R)-2-((1H-tetrazol-5-yl)methyl)-6-(3-chlorophenyl)-5-(4-chlorophenyl)-3-oxomorpholino)-2-cyclopropylethyl)-N-(2-fluorophenyl)cyclopropanesulfonamide] | < 1
6 | O=C1[C@@H](Cc2nnn[nH]2)O[C@H](c2cccc(Cl)c2)[C@@H](c2ccc(Cl)cc2)N1[C@H](CN(c1ccccc1F)S(=O)(=O)C1CC1)C1CC1 (single isomer, unassigned) [Example 399, N-((S)-2-((2R,5R,6R)-2-((1H-Tetrazol-5-yl)methyl)-6-(3-chlorophenyl)-5-(4-chlorophenyl)-3-oxomorpholino)-2-cyclopropylethyl)-N-(2-fluorophenyl)cyclopropanesulfonamide or N-((S)-2-((2S,5R,6R)-2-((1H-tetrazol-5-yl)methyl)-6-(3-chlorophenyl)-5-(4-chlorophenyl)-3-oxomorpholino)-2-cyclopropylethyl)-N-(2-fluorophenyl)cyclopropanesulfonamide] | < 1
7 | CC[C@@H](CS(=O)(=O)C(C)(C)C)N1C(=O)[C@@H](Cc2nnnn2C)O[C@H](c2cccc(Cl)c2)[C@H]1c1ccc(Cl)cc1 (single isomer, unassigned) [Example 400, (2R,5R,6R)-4-((S)-1-(tert-Butylsulfonyl)butan-2-yl)-6-(3-chlorophenyl)-5-(4-chlorophenyl)-2-((1-methyl-1H-tetrazol-5-yl)methyl)morpholin-3-one or (2R,5R,6R)-4-((S)-1-(tert-butylsulfonyl)butan-2-yl)-6-(3-chlorophenyl)-5-(4-chlorophenyl)-2-((2-methyl-2H-tetrazol-5-yl)methyl)morpholin-3-one] | 37
8 | CC[C@@H](CS(=O)(=O)C(C)(C)C)N1C(=O)[C@@H](Cc2nnnn2C)O[C@H](c2cccc(Cl)c2)[C@H]1c1ccc(Cl)cc1 (single isomer, unassigned) [Example 401, (2R,5R,6R)-4-((S)-1-(tert-Butylsulfonyl)butan-2-yl)-6-(3-chlorophenyl)-5-(4-chlorophenyl)-2-((1-methyl-1H-tetrazol-5-yl)methyl)morpholin-3-one or (2R,5R,6R)-4-((S)-1-(tert-butylsulfonyl)butan-2-yl)-6-(3-chlorophenyl)-5-(4-chlorophenyl)-2-((2-methyl-2H-tetrazol-5-yl)methyl)morpholin-3-one] | 38
9 | Cc1nnc(C[C@H]2O[C@H](c3cccc(Cl)c3)[C@@H](c3ccc(Cl)cc3)N([C@H](CN(c3ccccc3F)S(=O)(=O)C3CC3)C3CC3)C2=O)o1 (single isomer, unassigned) [Example 403, N-((S)-2-((2R,3R,6R)-2-(3-Chlorophenyl)-3-(4-chlorophenyl)-6-((5-methyl-1,3,4-oxadiazol-2-yl)methyl)-5-oxomorpholino)-2-cyclopropylethyl)-N-(2-fluorophenyl)cyclopropanesulfonamide or N-((S)-2-((2S,3R,6R)-2-(3-chlorophenyl)-3-(4-chlorophenyl)-6-((5-methyl-1,3,4-oxadiazol-2-yl)methyl)-5-oxomorpholino)-2-cyclopropylethyl)-N-(2-fluorophenyl)cyclopropanesulfonamide] | 2
10 | Cc1nnc(C[C@H]2O[C@@H](c3cccc(Cl)c3)[C@@H](c3ccc(Cl)cc3)N([C@H](CN(c3ccccc3F)S(=O)(=O)C3CC3)C3CC3)C2=O)o1 (single isomer, unassigned) [Example 404, N-((S)-2-((2S,3R,6R)-2-(3-Chlorophenyl)-3-(4-chlorophenyl)-6-((5-methyl-1,3,4-oxadiazol-2-yl)methyl)-5-oxomorpholino)-2-cyclopropylethyl)-N-(2-fluorophenyl)cyclopropanesulfonamide or N-((S)-2-((2R,3R,6R)-2-(3-chlorophenyl)-3-(4-chlorophenyl)-6-((5-methyl-1,3,4-oxadiazol-2-yl)methyl)-5-oxomorpholino)-2-cyclopropylethyl)-N-(2-fluorophenyl)cyclopropanesulfonamide] | 134
11 | NS(=O)(=O)C[C@H]1O[C@H](c2cccc(Cl)c2)[C@@H](c2ccc(Cl)cc2)N([C@H](CN(c2ccccc2F)S(=O)(=O)C2CC2)C2CC2)C1=O (single isomer, unassigned) [Example 409, N-((S)-2-((2R,3R,6S)-2-(3-Chlorophenyl)-3-(4-chlorophenyl)-5-oxo-6-(sulfamoylmethyl)morpholino)-2-cyclopropylethyl)-N-(2-fluorophenyl)cyclopropanesulfonamide or N-((S)-2-((2S,3R,6S)-2-(3-chlorophenyl)-3-(4-chlorophenyl)-5-oxo-6-(sulfamoylmethyl)morpholino)-2-cyclopropylethyl)-N-(2-fluorophenyl)cyclopropanesulfonamide] | < 1
12 | NS(=O)(=O)C[C@H]1O[C@H](c2cccc(Cl)c2)[C@@H](c2ccc(Cl)cc2)N([C@H](CN(c2ccccc2F)S(=O)(=O)C2CC2)C2CC2)C1=O (single isomer, unassigned) [Example 410, N-((S)-2-((2R,3R,6S)-2-(3-Chlorophenyl)-3-(4-chlorophenyl)-5-oxo-6-(sulfamoylmethyl)morpholino)-2-cyclopropylethyl)-N-(2-fluorophenyl)cyclopropanesulfonamide or N-((S)-2-((2S,3R,6S)-2-(3-chlorophenyl)-3-(4-chlorophenyl)-5-oxo-6-(sulfamoylmethyl)morpholino)-2-cyclopropylethyl)-N-(2-fluorophenyl)cyclopropanesulfonamide] | < 1
13 | CC(C)(C)S(=O)(=O)C[C@H](C1CC1)N1C(=O)[C@@](C)(CC(=O)O)O[C@H](c2cccc(Cl)c2)[C@H]1c1ccc(Cl)c(F)c1 (single isomer, unassigned) [Example 411, 2-((2R,5R,6R)-4-((S)-2-(tert-Butylsulfonyl)-1-cyclopropylethyl)-5-(4-chloro-3-fluorophenyl)-6-(3-chlorophenyl)-2-methyl-3-oxomorpholin-2-yl)acetic acid or 2-((2S,5R,6R)-4-((S)-2-(tert-butylsulfonyl)-1-cyclopropylethyl)-5-(4-chloro-3-fluorophenyl)-6-(3-chlorophenyl)-2-methyl-3-oxomorpholin-2-yl)acetic acid] | < 1
